Columns and labels:
Assay in all cases: Antibiotic susceptibility profile
Type in all cases: cell-based, Acinetobacter baumannii
Set-up in all cases: key: Resistance; Intermediate; Susceptible
[1] = tested on: A. baumannii clinical isolate NY B
Text: (§1) We obtained over thirty clinical isolates of A. baumannii from nosocomial infections in New York City and Los Angeles. […] Only antibiotics with breakpoints for A. baumannii were used. […] Isolates LA 01 to 20 were acquired from Los Angels County while NY-A to NY-H were obtained from New York City.
(§2) Antibiotic susceptibility profiles of clinical isolates of A. baumannii and reference strains. R, I, and S denote Resistance, Intermediate and Susceptible, respectively. Genetic Profiling of Clinical Isolates of A. baumannii

[2] = tested on: A. baumannii clinical isolate LAC 16
Text: as §1, §2

[3] = tested on: A. baumannii reference strain 19606; details: strain 19606 (ATCC)
Text: as §1, §2

[4] = tested on: A. baumannii clinical isolate LAC 11
Text: as §1, §2

[5] = tested on: A. baumannii clinical isolate NY D
Text: as §1, §2

[6] = tested on: A. baumannii clinical isolate LAC 02
Text: as §1, §2

[7] = tested on: A. baumannii clinical isolate NY C
Text: as §1, §2

[8] = tested on: A. baumannii reference strain AYE
Text: as §1, §2

[9] = tested on: A. baumannii clinical isolate NY G
Text: as §1, §2

[10] = tested on: A. baumannii clinical isolate LAC 17
Text: as §1, §2

[11] = tested on: A. baumannii clinical isolate LAC 10
Text: as §1, §2

[12] = tested on: A. baumannii reference strain 17978; details: strain 17978 (ATCC)
Text: as §1, §2

[13] = tested on: A. baumannii clinical isolate LAC 09
Text: as §1, §2

[14] = tested on: A. baumannii clinical isolate LAC 03
Text: as §1, §2

[15] = tested on: A. baumannii clinical isolate LAC 13
Text: as §1, §2

[16] = tested on: A. baumannii clinical isolate LAC 18
Text: as §1, §2

[17] = tested on: A. baumannii clinical isolate NY H
Text: as §1, §2

[18] = tested on: A. baumannii clinical isolate LAC 07
Text: as §1, §2

[19] = tested on: A. baumannii clinical isolate LAC 12
Text: as §1, §2

[20] = tested on: A. baumannii reference strain SDF
Text: as §1, §2

[21] = tested on: A. baumannii clinical isolate NY F
Text: as §1, §2

[22] = tested on: A. baumannii clinical isolate LAC 20
Text: as §1, §2

[23] = tested on: A. baumannii clinical isolate LAC 01
Text: as §1, §2

[24] = tested on: A. baumannii clinical isolate LAC 06
Text: as §1, §2

[25] = tested on: A. baumannii clinical isolate LAC 15
Text: as §1, §2

[26] = tested on: A. baumannii clinical isolate NY E
Text: as §1, §2

[27] = tested on: A. baumannii clinical isolate LAC 19
Text: as §1, §2

[28] = tested on: A. baumannii clinical isolate LAC 08
Text: as §1, §2

[29] = tested on: A. baumannii clinical isolate LAC 05
Text: as §1, §2

[30] = tested on: A. baumannii reference strain 15839; details: strain 15839 (ATCC)
Text: as §1, §2

[31] = tested on: A. baumannii clinical isolate NY A
Text: as §1, §2

[32] = tested on: A. baumannii clinical isolate LAC 04
Text: as §1, §2

[33] = tested on: A. baumannii clinical isolate LAC 14
Text: as §1, §2

How did the Antibiotic susceptibility [1] turn out when `CN(C)[C@@H]1C(O)=C(C(N)=O)C(=O)[C@@]2(O)C(O)=C3C(=O)c4c(O)cccc4[C@@](C)(O)[C@H]3C[C@@H]12` [TET, Tetracycline] was run?
The Antibiotic susceptibility was “R”.

What about the Antibiotic susceptibility [2] of the same molecule?
Its Antibiotic susceptibility is “I”.

And the Antibiotic susceptibility [3]?
Its Antibiotic susceptibility is “I”.

What about the Antibiotic susceptibility [4] of the same molecule?
Its Antibiotic susceptibility is “R”.

What about the Antibiotic susceptibility [5] of the same molecule?
The Antibiotic susceptibility was “R”.

And the Antibiotic susceptibility [6]?
Its Antibiotic susceptibility is “R”.

And the Antibiotic susceptibility [7]?
Its Antibiotic susceptibility is “R”.

What about the Antibiotic susceptibility [8] of the same molecule?
The Antibiotic susceptibility was “R”.

And the Antibiotic susceptibility [9]?
The Antibiotic susceptibility was “R”.

What about the Antibiotic susceptibility [10] of the same molecule?
Its Antibiotic susceptibility is “R”.

What about the Antibiotic susceptibility [11] of the same molecule?
The Antibiotic susceptibility was “R”.

And the Antibiotic susceptibility [12]?
Its Antibiotic susceptibility is “S”.

What about the Antibiotic susceptibility [13] of the same molecule?
Its Antibiotic susceptibility is “R”.

What about the Antibiotic susceptibility [14] of the same molecule?
The Antibiotic susceptibility was “R”.

What about the Antibiotic susceptibility [15] of the same molecule?
Its Antibiotic susceptibility is “R”.

What about the Antibiotic susceptibility [16] of the same molecule?
The Antibiotic susceptibility was “R”.

What about the Antibiotic susceptibility [17] of the same molecule?
Its Antibiotic susceptibility is “R”.

And the Antibiotic susceptibility [18]?
The Antibiotic susceptibility was “R”.

What about the Antibiotic susceptibility [19] of the same molecule?
The Antibiotic susceptibility was “R”.

And the Antibiotic susceptibility [20]?
The Antibiotic susceptibility was “I”.

What about the Antibiotic susceptibility [21] of the same molecule?
Its Antibiotic susceptibility is “R”.

And the Antibiotic susceptibility [22]?
Its Antibiotic susceptibility is “R”.

And the Antibiotic susceptibility [23]?
Its Antibiotic susceptibility is “R”.

And the Antibiotic susceptibility [24]?
Its Antibiotic susceptibility is “R”.

What about the Antibiotic susceptibility [25] of the same molecule?
Its Antibiotic susceptibility is “R”.

What about the Antibiotic susceptibility [26] of the same molecule?
The Antibiotic susceptibility was “R”.

What about the Antibiotic susceptibility [27] of the same molecule?
Its Antibiotic susceptibility is “I”.

And the Antibiotic susceptibility [28]?
Its Antibiotic susceptibility is “R”.

What about the Antibiotic susceptibility [29] of the same molecule?
Its Antibiotic susceptibility is “R”.

And the Antibiotic susceptibility [30]?
The Antibiotic susceptibility was “R”.

And the Antibiotic susceptibility [31]?
Its Antibiotic susceptibility is “I”.

What about the Antibiotic susceptibility [32] of the same molecule?
The Antibiotic susceptibility was “I”.

What about the Antibiotic susceptibility [33] of the same molecule?
Its Antibiotic susceptibility is “R”.

Which results are given for `C[C@@H](O)[C@H]1C(=O)N2C(C(=O)O)=C(SCCN=CN)C[C@H]12` [IPM, Imipenem]?
Antibiotic susceptibility [1]: R; Antibiotic susceptibility [2]: I; Antibiotic susceptibility [3]: S; Antibiotic susceptibility [4]: S; Antibiotic susceptibility [5]: R; Antibiotic susceptibility [6]: I; Antibiotic susceptibility [7]: R; Antibiotic susceptibility [8]: R; Antibiotic susceptibility [9]: R; Antibiotic susceptibility [10]: I; Antibiotic susceptibility [11]: R; Antibiotic susceptibility [12]: S; Antibiotic susceptibility [13]: R; Antibiotic susceptibility [14]: S; Antibiotic susceptibility [15]: S; Antibiotic susceptibility [16]: I; Antibiotic susceptibility [17]: R; Antibiotic susceptibility [18]: I; Antibiotic susceptibility [19]: S; Antibiotic susceptibility [20]: S; Antibiotic susceptibility [21]: R; Antibiotic susceptibility [22]: I; Antibiotic susceptibility [23]: S; Antibiotic susceptibility [24]: S; Antibiotic susceptibility [25]: I; Antibiotic susceptibility [26]: R; Antibiotic susceptibility [27]: I; Antibiotic susceptibility [28]: S; Antibiotic susceptibility [29]: S; Antibiotic susceptibility [30]: S; Antibiotic susceptibility [31]: R; Antibiotic susceptibility [32]: S; Antibiotic susceptibility [33]: S

With `CC(C)(O/N=C(\C(=O)N[C@@H]1C(=O)N2C(C(=O)[O-])=C(C[n+]3ccccc3)CS[C@H]12)c1csc(N)n1)C(=O)O` [CAZ, Ceftazidime] as the molecule, how does the Antibiotic susceptibility [1] read?
The Antibiotic susceptibility was “R”.

What about the Antibiotic susceptibility [2] of the same molecule?
Its Antibiotic susceptibility is “R”.

What about the Antibiotic susceptibility [3] of the same molecule?
The Antibiotic susceptibility was “S”.

And the Antibiotic susceptibility [4]?
The Antibiotic susceptibility was “R”.

And the Antibiotic susceptibility [5]?
The Antibiotic susceptibility was “R”.

And the Antibiotic susceptibility [6]?
Its Antibiotic susceptibility is “R”.

What about the Antibiotic susceptibility [7] of the same molecule?
Its Antibiotic susceptibility is “R”.

And the Antibiotic susceptibility [8]?
Its Antibiotic susceptibility is “R”.

And the Antibiotic susceptibility [9]?
Its Antibiotic susceptibility is “R”.

And the Antibiotic susceptibility [10]?
The Antibiotic susceptibility was “R”.

What about the Antibiotic susceptibility [11] of the same molecule?
Its Antibiotic susceptibility is “R”.

What about the Antibiotic susceptibility [12] of the same molecule?
The Antibiotic susceptibility was “S”.

And the Antibiotic susceptibility [13]?
Its Antibiotic susceptibility is “R”.

And the Antibiotic susceptibility [14]?
Its Antibiotic susceptibility is “R”.

What about the Antibiotic susceptibility [15] of the same molecule?
The Antibiotic susceptibility was “R”.

And the Antibiotic susceptibility [16]?
Its Antibiotic susceptibility is “R”.

What about the Antibiotic susceptibility [17] of the same molecule?
Its Antibiotic susceptibility is “R”.

And the Antibiotic susceptibility [18]?
The Antibiotic susceptibility was “R”.

What about the Antibiotic susceptibility [19] of the same molecule?
Its Antibiotic susceptibility is “R”.

And the Antibiotic susceptibility [20]?
The Antibiotic susceptibility was “S”.

What about the Antibiotic susceptibility [21] of the same molecule?
Its Antibiotic susceptibility is “R”.

And the Antibiotic susceptibility [22]?
Its Antibiotic susceptibility is “R”.

And the Antibiotic susceptibility [23]?
The Antibiotic susceptibility was “R”.

And the Antibiotic susceptibility [24]?
The Antibiotic susceptibility was “S”.

And the Antibiotic susceptibility [25]?
The Antibiotic susceptibility was “R”.

What about the Antibiotic susceptibility [26] of the same molecule?
The Antibiotic susceptibility was “R”.

And the Antibiotic susceptibility [27]?
Its Antibiotic susceptibility is “R”.

And the Antibiotic susceptibility [28]?
The Antibiotic susceptibility was “I”.

And the Antibiotic susceptibility [29]?
The Antibiotic susceptibility was “I”.

And the Antibiotic susceptibility [30]?
The Antibiotic susceptibility was “R”.

What about the Antibiotic susceptibility [31] of the same molecule?
The Antibiotic susceptibility was “R”.

What about the Antibiotic susceptibility [32] of the same molecule?
Its Antibiotic susceptibility is “R”.

What about the Antibiotic susceptibility [33] of the same molecule?
Its Antibiotic susceptibility is “R”.

Which Antibiotic susceptibility [1] does the source give for `COc1c(N2CCNC(C)C2)c(F)cc2c(=O)c(C(=O)O)cn(C3CC3)c12` (stereo not drawn) [GAT, Gatifloxacin] here?
Its Antibiotic susceptibility is “R”.

What about the Antibiotic susceptibility [2] of the same molecule?
Its Antibiotic susceptibility is “R”.

And the Antibiotic susceptibility [3]?
The Antibiotic susceptibility was “S”.

And the Antibiotic susceptibility [4]?
Its Antibiotic susceptibility is “R”.

What about the Antibiotic susceptibility [5] of the same molecule?
Its Antibiotic susceptibility is “R”.

What about the Antibiotic susceptibility [6] of the same molecule?
The Antibiotic susceptibility was “R”.

And the Antibiotic susceptibility [7]?
The Antibiotic susceptibility was “R”.

And the Antibiotic susceptibility [8]?
Its Antibiotic susceptibility is “I”.

What about the Antibiotic susceptibility [9] of the same molecule?
Its Antibiotic susceptibility is “R”.

What about the Antibiotic susceptibility [10] of the same molecule?
Its Antibiotic susceptibility is “R”.

What about the Antibiotic susceptibility [11] of the same molecule?
Its Antibiotic susceptibility is “R”.

And the Antibiotic susceptibility [12]?
The Antibiotic susceptibility was “S”.

And the Antibiotic susceptibility [13]?
Its Antibiotic susceptibility is “R”.

What about the Antibiotic susceptibility [14] of the same molecule?
Its Antibiotic susceptibility is “R”.

What about the Antibiotic susceptibility [15] of the same molecule?
Its Antibiotic susceptibility is “R”.

And the Antibiotic susceptibility [16]?
Its Antibiotic susceptibility is “R”.

And the Antibiotic susceptibility [17]?
The Antibiotic susceptibility was “R”.

What about the Antibiotic susceptibility [18] of the same molecule?
Its Antibiotic susceptibility is “R”.

And the Antibiotic susceptibility [19]?
The Antibiotic susceptibility was “R”.

And the Antibiotic susceptibility [20]?
Its Antibiotic susceptibility is “S”.

What about the Antibiotic susceptibility [21] of the same molecule?
The Antibiotic susceptibility was “R”.

And the Antibiotic susceptibility [22]?
The Antibiotic susceptibility was “R”.

And the Antibiotic susceptibility [23]?
The Antibiotic susceptibility was “R”.

And the Antibiotic susceptibility [24]?
Its Antibiotic susceptibility is “S”.

And the Antibiotic susceptibility [25]?
Its Antibiotic susceptibility is “R”.

And the Antibiotic susceptibility [26]?
Its Antibiotic susceptibility is “R”.

What about the Antibiotic susceptibility [27] of the same molecule?
Its Antibiotic susceptibility is “I”.

What about the Antibiotic susceptibility [28] of the same molecule?
Its Antibiotic susceptibility is “R”.

What about the Antibiotic susceptibility [29] of the same molecule?
Its Antibiotic susceptibility is “R”.

And the Antibiotic susceptibility [30]?
The Antibiotic susceptibility was “R”.

And the Antibiotic susceptibility [31]?
Its Antibiotic susceptibility is “R”.

And the Antibiotic susceptibility [32]?
Its Antibiotic susceptibility is “S”.

What about the Antibiotic susceptibility [33] of the same molecule?
Its Antibiotic susceptibility is “R”.

— patent US20080090734A1, “DRUG SCREENING AND TARGET IDENTIFICATION USING SPR IMAGING OF TARGET PROTEIN ARRAYS” (The Trustees of California State University, priority 2006, published 2008)
